# Where two headings read alike, the source gives them in different places.
# Assays:
# 5-HT1A receptors [1] = target: T1, 5-HT1A receptors (Rattus norvegicus, UniProt P19327); experiment: Inhibition of 3H-8-OH-DPAT binding to serotonin 5-HT1A receptors in rat brain in vitro; design: 5-HT1A receptors in membranes from rat brain minus cerebellum; from tissue; host or cells: brain minus cerebellum of male Wistar (Mol:Wist) rats, crude membranes; species or system rat (male Wistar); settings: rat brain minus cerebellum membranes, 37° C., 15 min
# T1 sequence (P19327 1-422): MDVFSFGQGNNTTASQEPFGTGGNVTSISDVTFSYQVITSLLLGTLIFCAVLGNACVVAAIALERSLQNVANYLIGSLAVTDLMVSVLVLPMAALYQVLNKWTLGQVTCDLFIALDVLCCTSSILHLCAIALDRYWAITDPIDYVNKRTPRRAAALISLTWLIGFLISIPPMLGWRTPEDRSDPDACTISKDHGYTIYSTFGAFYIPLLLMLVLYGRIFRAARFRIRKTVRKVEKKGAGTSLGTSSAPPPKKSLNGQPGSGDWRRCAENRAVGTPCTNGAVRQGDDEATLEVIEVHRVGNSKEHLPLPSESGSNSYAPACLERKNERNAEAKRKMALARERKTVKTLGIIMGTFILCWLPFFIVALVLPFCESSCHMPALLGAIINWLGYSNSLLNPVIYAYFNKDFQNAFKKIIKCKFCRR
# Method: Male Wistar (Mol:Wist) rats (125-250 g) are sacrificed and the brain is dissected and weighed. The brain tissue minus cerebellum is homogenized (Ultra Turrax, 20 sec) in 10 ml of ice cold 50 nM Tris buffer pH 8.0 (at 25° C.) containing 120 mM NaCl, 4 mM CaCl2 and 4 mM MgCl2. The homogenate is centrifuged at 20,000 g for 10 min at 4° C. The pellet is homogenized in 10 ml of buffer and incubated at 37° C. for 10 min. The homogenate is centrifuged as above and the pellet is homogenized in 100 vol (w/v) ice cold buffer containing 10 μM of pargyline.
# Incubation tubes kept on ice in triplicate receive 100 μl of drug solution in water (or water for total binding) and 1000 μl of tissue suspension (final tissue content corresponds to 10 mg original tissue). […] After incubation for 15 min the samples are filtered under vacuum (0-50 mBar) through Whatman GF/F filters (25 mm). The tubes are rinsed with 5 ml ice cold 0.9% NaCl which is then poured on the filters. Thereafter, the filters are washed with 2×5 ml 0.9% NaCl. The filters are placed in counting vials and 4 ml of appropriate scintillation fluid (e.g. Picofluor™ 15) are added. After shaking for 1 h and storage 2 h in the dark the content of radioactivity is determined by liquid scintillation counting. Specific binding is obtained by subtracting the nonspecific binding in the presence of 10 μM of 5-HT.
# For determination of the inhibition of binding five concentrations of drugs covering 3 decades are used.
# The IC50 -value is determined as the concentration, at which the binding is 50% of the total binding in control samples minus the nonspecific binding in the presence of 10 μM of 5-HT.
# 5-HT1A receptors [2] = target: T1, 5-HT1A receptors; experiment: 8-OH DPAT cue agonism in rats (drug discrimination); assay type: in vivo, male Wistar rats; design: agonist effects of a test compound on 5-HT1A receptors in vivo; from tissue; host or cells: living male Wistar rats (endogenous receptor, in vivo); settings: sc, read-out: 8-OH DPAT Cue Agonism ED50, rats, s.c., usually 30 or 45 min before test
# Method: 8-OH DPAT Cue Agonisme in Rats
# This test model is used to determine the agonist effects of a test compound on 5-HT1A receptors in vivo. A related method is described by Tricklebank, M. D., et al, Eur. J. Pharmacol., 1987, 133, 47-56; Arnt, J. Pharmacology & Toxicology, 1989, 64, 165.
# Male Wistar rats are trained to discriminate between 8-OH-DPAT (0.4 mg/kg, i.p., 15 min pretreatment) and physiological saline in operant chambers equipped with two response levers. Between the levers a dipper is placed, where water rewards (0.1 ml) are presented. The rats are water deprived for at least 24 h and work in a fixed ratio (FR) schedule (final FR=32).
# Following 8-OH-DPAT administration responding is reinforced only on a designated (drug) lever, whereas responding on the opposite lever has no consequences. Following saline administration responding is reinforced on the lever opposite to the drug lever. Drug and saline trials alternate randomly between days. The level of s discrimination occuracy is expressed as the per cent drug responses and is calculated as the number of correct responses ×100 divided by the sum of the correct and incorrect responses before the first reward. The time to the first reward is also recorded as a measure of reaction time. When stable occuracy (mean correst responding=90%; individual rats at least 75% correct responding) is obtained test sessions are included between training days. Test compound is injected s.c. usually 30 min or 45 min, respectively, before beginning of the test. The test trial is terminated when a total of 32 responses are made on either lever or when 20 min have elapsed. No reward is given and the rats have free access to water for 20-30 min after the test. The effects are expressed as per cent drug responding. Only results from rats making at least 10 responses on one lever are included in data analysis. Furthermore, only test sessions in which at least half of the rats respond are included.
# The per cent inhibition of drug response obtained for each dose of test compound is used to calculate ED50 values by log-probit analysis.
# [3] = read-out: 3H 8-OH DPAT binding IC50, 1 nM 3H-8-OH-DPAT
# [4] = 3H 8-OH DPAT binding IC50, 1 nM 3H-8-OH-DPAT
Compound,IC50 (5-HT1A receptors [1]; [4]),also measured
"3-[N-(2-phenylethyl)-N-propylaminomethyl]-5-formylaminomethyl-2,3-dihydrobenzothiophene [Compound 5b]",–,IC50 (5-HT1A receptors [1]; [3]): 60 nM
"CCCN(CCC)CC1CCc2ccc(NC(C)=O)cc21 (single isomer, unassigned; (+)) [Compound 8b, (+)-6-Acetylamino-1-(N,N-dipropylaminomethyl)indan]",–,IC50 (5-HT1A receptors [1]; [3]): 0.64 nM
"CC(=O)Nc1ccc2c(c1)C(CN1CCCCC1)CC2 (single isomer, unassigned; (+)) [Compound 8f, (+)-6-acetylamino-1-(1-piperidinomethyl)indan]",15 nM,–
"CCCN(CCC)CC1CCc2ccc(NC=O)cc21 (single isomer, unassigned; (+)) [Compound 10b, (+)-1-(N,N-dipropylaminomethyl)-6-formylaminoindan]",4.2 nM,–
"CCCN(CCC)CC1CCc2ccc(NC(=O)N(C)C)cc21 (single isomer, unassigned; (+)) [Compound 10d, (+)-6-(3,3-dimethyl-1-ureido)-1-(N,N-dipropylaminomethyl)indan]",22 nM,–
"CCCN(CCC)CC1CCc2ccc(NC(=O)Nc3ccc(F)cc3)cc21 (single isomer, unassigned; (+)) [Compound 10f, (+)-6-[3-(4-fluorophenyl)-1-ureido]-1-(N,N-dipropylaminomethyl)indan]",63 nM,–
"CN(C)CC1CCc2ccc(NC=O)cc21 (single isomer, unassigned; (+)) [Compound 10h, (+)-1-(N,N-dimethylaminomethyl)-6-formylaminoindan]",220 nM,–
"CCCN(CCC)CC1CCc2cc(Cl)c(NC(C)=O)cc21 (single isomer, unassigned; (+)) [Compound 11c, (+)-6-Acetylamino-5-chloro-1-(N,N-dipropylaminomethyl)indan]",14 nM,–
"CCCN(CCC)CC1CCc2ccc(NC(C)=O)cc21 (single isomer, unassigned; (-)) [Compound 8a, (-)-6-Acetylamino-1-(N,N-dipropylaminomethyl)indan]",0.64 nM,–
"CC(=O)Nc1ccc2c(c1)C(CN1CCCCC1)CC2 (single isomer, unassigned; (-)) [Compound 8e, (-)-6-acetylamino-1-(1-piperidinomethyl)indan]",6.7 nM,–
"CCCN(CCC)CC1CCc2ccc(NC=O)cc21 (single isomer, unassigned; (-)) [Compound 10a, (-)-1-(N,N-dipropylaminomethyl)-6-formylaminoindan]",1 nM,–
"CCCN(CCC)CC1CCc2ccc(NC(=O)N(C)C)cc21 (single isomer, unassigned; (-)) [Compound 10c, (-)-6-(3,3-dimethyl-1-ureido)-1-(N, N-dipropylaminomethyl)indan]",8.1 nM,–
"CCCN(CCC)CC1CCc2ccc(NC(=O)Nc3ccc(F)cc3)cc21 (single isomer, unassigned; (-)) [Compound 10e, (-)-6-[3-(4-fluorophenyl)-1-ureido]-1-(N,N-dipropylaminomethyl)indan]",160 nM,–
"CN(C)CC1CCc2ccc(NC=O)cc21 (single isomer, unassigned; (-)) [Compound 10g, (-)-1-(N,N-dimethylaminomethyl)-6-formylaminoindan]",48 nM,–
"CCCN(CCC)C1CCc2cccc(O)c2C1 (centres unmarked) [8-OH DPAT, 8-hydroxy-2-dipropylaminotetralin, reference compound]",–,ED50 (5-HT1A receptors [2]): 0.1 µmol/kg
"O=CNc1ccc2c(c1)C(CN1CCCC1)CC2 (centres unmarked) [Compound 1d, 6-Formylamino-1-(1-pyrrolidinomethyl)indan]",19 nM,–
"CCCN(CCC)CC1CCc2ccc(NC(C)=O)c(Cl)c21 (centres unmarked) [Compound 2f, 6-Acetylamino-7-chloro-1-(N,N-dipropylaminomethyl)indan]",340 nM,–
"CCCN(CCC)CC1CCc2ccc(NS(C)(=O)=O)c(Cl)c21 (centres unmarked) [Compound 2h, 7-chloro-1-(N,N-dipropylaminomethyl)-6-(methylsulphonylamino)indan]",2000 nM,–

Compound,IC50 (5-HT1A receptors [1]; [4]),also measured
"CC(=O)Nc1ccc2c(c1)C(CN1CCCCC1)CS2 (centres unmarked) [Compound 2i, 5-acetylamino-3-(1-piperidinomethyl)-2,3-dihydrobenzothiophene]",6.3 nM,–
"CCCN(CCC)CC1CCc2ccc(NC(N)=O)cc21 (centres unmarked) [Compound 3a, 1-(N,N-dipropylaminomethyl)-6-ureido-indan]",0.56 nM,–
"CCCN(CCC)CC1CCc2ccc(NC(=O)Nc3ccccc3)cc21 (centres unmarked) [Compound 4a, 1-(N,N-dipropylaminomethyl)-6-(3-phenyl-1-ureido)indan]",80 nM,–
"CCCN(CCC)CC1CCc2ccc(NC(=O)NC)cc21 (centres unmarked) [Compound 4b, 1-(N,N-dipropylaminomethyl)-6-(3-methyl-1-ureido)indan]",6.6 nM,–
"CCCCCCCCCNC(=O)Nc1ccc2c(c1)C(CN(CCC)CCC)CC2 (centres unmarked) [Compound 4d, 1-(N,N-dipropylaminomethyl)-6-(3-nonyl-1-ureido)indan]",170 nM,–
"CCCN(CCC)CC1CCc2ccc(NC(=O)NC3CCCC3)cc21 (centres unmarked) [Compound 4e, 6-(3-cyclopentyl-1-ureido)-1-(N,N-dipropylaminomethyl)indan]",170 nM,–
"CC(=O)Nc1ccc2c(c1)C(CN1CCCCC1)CC2 (centres unmarked) [Compound 5c, 6-acetylamino-1-(1-piperidinomethyl)indan]",6.5 nM,–
"CCCN(CCC)CC1CCc2ccc(NCc3ccc(F)cc3)cc21 (centres unmarked) [Compound 6a, 1-(N,N-dipropylaminomethyl)-6-(4-fluorobenzylamino)indan]",20 nM,–
"CCCN(CCC)CC1CCc2cc(Br)c(NC(C)=O)cc21 (centres unmarked) [Compound 11d, 6-Acetylamino-5-bromo-1-(N,N-dipropylaminomethyl)indan]",120 nM,–
"CNCC1CCc2ccc(NC(C)=O)cc21 (centres unmarked) [Compound 12a, 6-Acetylamino-1-(N-methylaminomethyl)indan]",25 nM,–
"CC(=O)Nc1ccc2c(c1)C(CN(C)CCN1CCN(c3ccc(F)cc3)C1=O)CC2 (centres unmarked) [Compound 13e, 6-Acetylamino-1-[N-[2-[3-(4-fluorophenyl)-2-imidazolidinon-1-yl]ethyl]-N-methyl-aminomethyl]indan]",27 nM,–
"CC(=O)Nc1ccc2c(c1)C(CN(C)CCCCN1CCN(C3CCCCC3)C1=O)CC2 (centres unmarked) [Compound 13f, 6-Acetylamino-1-[N-[4-(3-cyclohexyl-2-imidazolidinon-1-yl)-1-butyl]-N-methylaminomethyl]indan]",5.1 nM,–
"CC(=O)Nc1ccc2c(c1)C(CN(C)CCCN1CCN(c3ccccc3)C1=O)CC2 (centres unmarked) [Compound 13g, 6-Acetylamino-1-[N-methyl-N-[3-(3-phenyl-2-imidazolidinon-1-yl)-1-propyl]aminomethyl]indan]",1 nM,–
"CC(=O)Nc1ccc2c(c1)C(CN(C)CCCCN1CCN(c3ccc(F)cc3)C1=O)CC2 (centres unmarked) [Compound 13h, 6-Acetylamino-1-[N-[4-[3-(4-fluorophenyl)-2-imidazolidinon-1-yl]-1-butyl]-N-methylaminomethyl]indan]",4.8 nM,–
"CC(=O)Nc1ccc2c(c1)C(CN(C)CCCN1CCN(C3CCCCC3)C1=O)CC2 (centres unmarked) [Compound 13i, 6-Acetylamino-1-[N-[3-(3-cyclohexyl-2-imidazolidinon-1-yl)-1-propyl]-N-methylaminomethyl]indan]",2.2 nM,–
"CC(=O)Nc1ccc2c(c1)C(CN(C)CCCCCCN1CCN(C3CCCC3)C1=O)CC2 (centres unmarked) [Compound 13j, 6-Acetylamino-1-[N-[6-(3-cyclopentyl-2-imidazolidinon-1-yl)-1-hexyl]-N-methylaminomethyl]indan]",3.2 nM,–
"CC(=O)Nc1ccc2c(c1)C(CN(C)CCCCN1CCNC1=O)CC2 (centres unmarked) [Compound 13k, 6-Acetylamino-1-[N-[4-(2-imidazolidinon-1-yl)-1-butyl]-N-methylaminomethyl]indan]",790 nM,–
